Patent US7674783B2, “Estrogen beta receptor agonists to prevent or reduce the severity of cardiovascular disease” (Dimera Inc., priority 2002, dated 2010)
“Also recorded” adds a separate entry of the source.

What was measured:
rhesus coronary VMC = experiment: Ca2+ responses to S+U in rhesus coronary VMC after in vitro treatment (Fluo3 imaging); type: cell-based, rhesus monkey; conditions: for Ca2+ response to S+U (protected state vs control): FIG. 6, p<0.05; for Ca2+ signal in response to 15 sec S+U (protection): FIG. 4
Source text: (§1) Hearts or major blood vessels are removed at necropsy from rhesus monkeys sacrificed for other purposes and are immediately immersed in cold ionic solution for mammals (ISM2). ISM2 contains, in mM, 100 NaCl, 16 NaHCO3, 0.5 NaH2PO4, 4.7 KCl, 1.8 CaCl2, 0.4 MgCl2, 0.4 HgSO4, 50 HEPES, and 5.5 dextrose, at pH 7-3 to 7.4. Single cells are enzymatically dissociated in a multi-step process for hearts and coronary arteries are dissected from the anterior and posterior walls of the ventricles and the atrioventricular sulcus. The coronary artery segments are cleaned and then cut into small pieces and rinsed in culture solution for mammals—5th generation (CV5M) for 10 min, followed by potassium glutamate (KG) solution for 10 min, both at room temperature. CV5M contains 4.0 mM L-glutamine, 100 μg/mL ciprofloxacin, 50 mM HEPES (pH 7.3), and 16 mM NaHCO3 dissolved in 90% MEM-Earles's salts and 10% horse serum. KG solution contains, in mM, 140 K-glutamate, 50 HEPES (pH 7.3), 16 NaH2PO4, and 16.5 dextrose.
The coronary artery tissue is then incubated at 37° C. for 60 min in an enzyme solution (430 U/ml collagenase and 2 U/ml elastase with 2 mg/ml bovine serum albumin and 100 μM Ca^2+ in 10 ml of 37° C. KG) with slow stirring. The supernatant is transferred to 25 ml of 4° C. KG holding solution with 10% horse serum (KG-H), and 10 ml of enzyme solution is added to the remaining un-dispersed tissue fragments. This enzymatic treatment is repeated three times.
Enzyme exposure is minimized by cold and added serum. Holding solutions (with 10% serum) containing the dispersed cells are centrifuged at 200 G and 4° C. for 5 min. After the supernatant is removed, the cells are re-suspended in 5 ml of 37° C. CV5M and incubated for 1 hr at 37° C. to permit preferential attachment of fibroblasts. The remaining cells in suspension are counted and concentrated to ˜100,000 living cells/ml by centrifugation, and re-suspended in CV5M at 37° C. VMC are then seeded on clean glass coverslips in culture plates, and maintained undisturbed in 95% air-5% CO2 and 95% humidity at 37° C. for attachment for 12 hr, and then flooded with CV5M. Cells from the suspension are also similarly seeded in growth optimized culture flasks and flooded with CV5M after 12 hr.
Media changes to a 1% medium (CV5MM, identical to CV5M except the concentration of horse serum is 1 %) are used to reduce growth factors after 2-4 days. Strict pH control (7.3-7.4) at each temperature (4° and 37° C.) is maintained by recognition and allowance for the temperature coefficient of the HEPES buffer. Subculture of cells is performed by brief trypsinization, followed by neutralization of trypsin, wash in media, reconstitution of cell suspension in medium with 1% serum, and plating onto culture plates and coverslips. For Ca^2+ imaging experiments, VMC from primary culture are used.
Imaging of intracellular Ca^2+ changes is performed using the fluorescent indicator, Fluo3. Glass coverslips with attached VMC are placed into 300 μL LF 922 laminar flow chambers on the stage of a Zeiss Axiovert 200M microscope, and suffused with ISM2 continuously at 1 mL/min. Live cell fluorescent data acquisition is performed with a photon counting Hamamatsu VIM camera in conjunction with image processing software. Briefly, VMC are loaded with 3 μM Fluo3 for 10 min (stopped flow), then washed (continuously suffused) with ISM2 for 5 min. VMC are exposed for stimulation to a combination of serotonin and U46619, a stabile thromboxane A2 mimetic. This combination, containing serotonin at a concentration of 10 μM and U46619 at a concentration of 100 nM, is referred to as S+U. The VMC are exposed to the S+U combination for 15 sec (stopped flow), and then continuously suffused with ISM2.

[1] = molecular target: T1, estrogen receptor beta (ERβ/D22 interaction) (Homo sapiens, UniProt Q92731); experiment: ERβ coactivator fluorescence polarization assay; type: biochemical; conditions: 0.038 nM to 1240 nM, triplicate, FIG. 3
T1 construct: purchased PanVera/Invitrogen (Invitrogen Corp., Carlsbad, Calif.)
T1 sequence (Q92731 whole entry): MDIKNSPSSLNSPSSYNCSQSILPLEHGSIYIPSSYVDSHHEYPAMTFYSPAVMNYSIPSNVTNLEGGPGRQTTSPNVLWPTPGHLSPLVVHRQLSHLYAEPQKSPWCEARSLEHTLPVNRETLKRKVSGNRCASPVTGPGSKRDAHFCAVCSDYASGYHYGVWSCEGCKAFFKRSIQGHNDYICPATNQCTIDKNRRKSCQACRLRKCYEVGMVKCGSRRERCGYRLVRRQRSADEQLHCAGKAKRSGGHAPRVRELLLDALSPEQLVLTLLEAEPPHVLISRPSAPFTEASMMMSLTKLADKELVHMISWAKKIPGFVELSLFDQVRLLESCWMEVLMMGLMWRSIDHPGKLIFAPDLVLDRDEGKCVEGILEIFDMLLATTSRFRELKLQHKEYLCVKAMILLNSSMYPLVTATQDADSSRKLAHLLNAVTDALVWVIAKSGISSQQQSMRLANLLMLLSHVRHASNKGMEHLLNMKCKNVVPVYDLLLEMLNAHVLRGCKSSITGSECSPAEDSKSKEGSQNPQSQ
Method: An estrogen receptor beta coactivator fluorescence polarization assay was performed by PanVera/Invitrogen discovery screening applying the company's ERβ Coactivator Assay Kit (Invitrogen Corp., Carlsbad, Calif.) using fluorescence polarization with known estrogen receptor ligands (estradiol, ICI182,780, tamoxifen, and OH-tamoxifen) and test compounds (estriol, 3βAdiol, and epiestriol).
Data on the X-axis of the graph of FIG. 3 are represented as log of concentrations from 0.038 nM to 1240 nM tested for each of the perspective ligands. The ligand concentration that produces a half-maximal increase or decrease in polarization equals the ligand EC50 for the ERβ/D22 interaction. The ordinate Y-axis, mP, indicates fluorescence polarization units. Increase in polarization indicates agonist activity. Conversely, a decrease in polarization indicates antagonist activity. The date represent mean +/− standard deviation of the polarization values from the assay performed in triplicate.

[2] = tested on: VMC isolated from OVX monkeys; experiment: Ca2+ response to S+U of cultured VMC isolated from estriol-treated OVX monkeys (Fluo3 imaging); type: cell-based, rhesus monkey; conditions: VMC from OVX monkeys treated 4 weeks with daily transdermal estriol, cultured 2 weeks
Source text: as §1, with “dextrose. […]” for “dextrose.”
Enzyme exposure is minimized by cold and added serum. […] The remaining cells in suspension are counted and concentrated to ˜100,000 living cells/ml by centrifugation, and re-suspended in CV5M at 37° C. […]

[3] = tested on: coronary arteries of ovariectomized rhesus monkeys; experiment: Drug-induced (serotonin + U46619) coronary vasospasm in ovariectomized rhesus monkeys, coronary angiography; type: in vivo, Macaca mulatta
Method: Six adult ovariectomized (OVX) female rhesus monkeys (Macaca mulatta) were employed in the studies described below. None of the monkeys had been exposed to high cholesterol diets and all were later verified to lack evidence of cardiovascular disease. […] The monkeys were entered into the study no less than 3 months after ovariectomy.
Angiography after overnight fasting began with preanesthesia with ketamine (10 mg/kg body weight intramuscular), intubation with an endotracheal tube and a light surgical plane of anesthesia with isoflurane (induced at 1.5% to 3% maintained at 0.75% to 1.25%), vaporized with 33% nitrous oxide and 67% oxygen, or with 100% oxygen. Bilateral femoral intraarterial 3F catheters allowed for coronary catheterization and continuous recording of systemic arterial blood pressure and heart rate, which were maintained close to the initial anesthetic value for each monkey. […] A heating pad assisted in maintenance of a body temperature decrease ≦2° C. of preanesthesia body temperature (monitored by rectal thermometer). An electrocardiogram (ECG) recorded on a Gould eight-channel recorder, cutaneous arterial oxygen saturation, respiratory rate and end-tidal CO2 were also monitored.
Entire experiments were recorded on videotape (with episodic fluoroscopic imaging and continuous voice annotation) to permit computerized quantitative coronary angiography. […]
Placement of the 3F catheter was adjusted to provide sufficient filling with radio-opaque contrast medium, limited reflux and isolation of a branch of the coronary arterial tree. […] Fluoroscopic images were recorded on film using an OEC model 9800 digital x-ray system with fluoroscopic C-arm, digitally recorded, and evaluated in subsequent analysis. All procedures including a brief 0.2 ml injection of Hexabrix for optimal quantitative angiography were recorded on videotape for subsequent computer analysis. […]
After 4 weeks of daily treatment with 0.2 mg/kg of the estriol topical cream, the monkeys were studied by coronary catheterization, and reactivity was assessed by injection of serotonin (100 μM) and U46619 (1 μM). […]

[4] = Estriol absorbed, urine level after topical estriol cream; type: in vivo, Macaca mulatta; conditions: OVX rhesus monkeys, daily 0.3% estriol topical cream, urine collected just prior to catheterization, n = 5
Method: Repeat slow intracoronary infusions of 1 ml over 30 seconds of the combination of serotonin and U46619 in this 100:1 molar ratio were used, adjusted for body weight (0.2 mg/kg) to produce coronary blood levels of 6.7 μM serotonin and 67 nM U46619. The levels of these two components were based on calculated coronary flow dilution.

In the case of `C[C@]12CC[C@H](O)C[C@@H]1CC[C@@H]1[C@@H]2CC[C@]2(C)[C@@H](O)CC[C@@H]12` [3βAdiol, 5α-androstan-3β,17β-diol], the “Protection relative to genistein and DPN” value (rhesus coronary VMC; 300 pM 3βAdiol vs 10 nM genistein and 1 nM DPN, FIG. 6) is reported as “superior”, the “Ca2+ response to S+U (protected state vs control)” value (rhesus coronary VMC; 300 pM) is reported as “produced a protected state” and the “Ca2+ signal in response to 15 sec S+U (protection)” value (“Ca2+ signal … (protection)” for short) (rhesus coronary VMC; 72 hours treatment at 300 pM) is reported as “protection with estriol was found to be weaker than the estrogen beta receptor selective agonists 3βAdiol and epiestriol”. The “Ca2+ response to S+U” value (rhesus coronary VMC; concentrations greater than 30 pM (range tested 30 pM to 3 nM), FIG. 5) was “a protected state was established” and the “Estrogen beta receptor agonist activity (increase in polarization)” value [1] was “beta receptor activity similar to that of estriol and estradiol”.
In the case of `O=c1c(-c2ccc(O)cc2)coc2cc(O)cc(O)c12` [genistein], the “Ca2+ response to S+U (protected state vs control)” value (rhesus coronary VMC; 10 nM) is reported as “produced a protected state”.
For `N#CC(Cc1ccc(O)cc1)c1ccc(O)cc1` (stereo not drawn) [DPN, diarylpropionitrile], the “Ca2+ response to S+U (protected state vs control)” value (rhesus coronary VMC; 1 nM) was “produced a protected state”.
For `C[C@]12CC[C@@H]3c4ccc(O)cc4CC[C@H]3[C@@H]1C[C@H](O)[C@@H]2O` [epiestriol], the “Ca2+ signal … (protection)” value (rhesus coronary VMC; 72 hours treatment at 1 nM) was “protection with estriol was found to be weaker than the estrogen beta receptor selective agonists 3βAdiol and epiestriol” and the “Estrogen beta receptor agonist activity (increase in polarization)” value [1] was “beta receptor activity similar to that of estriol and estradiol”.
In the case of `CC[C@@H]1Cc2cc(O)ccc2C2=C1c1ccc(O)cc1C[C@H]2CC` [RRTHC, RR-tetrahydrochrysene], the “Ca2+ signal in response to 15 sec S+U (exaggerated hyperreactive state)” value (rhesus coronary VMC; 1 to 6 hour treatment with RRTHC, FIG. 7B) is reported as “not”, the “Ca2+ signal in response to 15 sec S+U” value (rhesus coronary VMC; 72 hours in RRTHC in vitro, FIG. 7B, p<0.05) is reported as “exaggerated hyperreactive state beyond control” and the “Effect on protection by 72 hour 300 pM 3βAdiol (Ca2+ signal after S+U)” value (rhesus coronary VMC; RRTHC 30 μM, 3 hours prior to and during 3βAdiol, FIG. 7A, p<0.05) is reported as “blocked”.
In the case of `C[C@]12CC[C@@H]3c4ccc(O)cc4CC[C@H]3[C@@H]1C[C@@H](O)[C@@H]2O` [estriol], the “Ca2+ signal … (protection)” value (rhesus coronary VMC; 72 hours treatment at 1 nM) is reported as “protective”, the “Protection relative to the other agonists” value (rhesus coronary VMC; 72 hours, 1 nM estriol vs 300 pM 3βAdiol and 1 nM epiestriol, FIG. 4, p<0.05) is reported as “weaker” and the “Estrogen beta receptor agonist activity (increase in polarization)” value [1] is reported as “estrogen beta agonists”. The “Ca2+ response state after S+U challenge” value ([2]; 15 sec S+U stimulus, FIG. 2) was “protected state”, the “Duration of Ca2+ spike after S+U challenge” value ([2]; declining after 2 min to nearly baseline) was 10 to 30 s and the “Vasospasm criteria met (incidence)” value ([3]; OVX rhesus monkeys, 4 weeks daily 0.3% estriol topical cream, intracoronary serotonin + U46619, criteria <33% of control diameter for >5 minutes) was 0/6. The “Protection against coronary vasospasm” value ([3]; OVX rhesus monkeys, 4 weeks daily estriol topical cream, serotonin + U46619 challenge) was “protected against vasospasm; also recorded: protection against coronary vasospasm by administration of estriol was categorical”, the “Minimum diameter of coronary arteries following S+U provocative stimulus” value ([3]; estriol cream treated OVX monkeys vs untreated OVX, FIG. 1, p<0.05) was “indicative of protection against provoked vasospasm” and the “E3 absorbed, urine (total)” value [4] was “***2412 +/− 316 (n = 5) ng/ml”.
